Experimental data published in patent US11779649B2, “Antibodies to PMEL17 and conjugates thereof” (Novartis AG, priority 2018, dated 2023).
Read-outs that look alike come from different tables or passages of the source. Positions of bridges follow the written chain, without caps; N, C: chain ends. Non-standard residues stand in square brackets, D forms with d. Residues, ends and D or L forms follow the SMILES beside them. Leu(3R-O(AcLeu(3R-OH))) = CC(=O)N[C@H](C(=O)O[C@H](C(C)C)[C@H](N)C(=O)O)[C@H](O)C(C)C; NMeT = CN[C@H](C(=O)O)[C@@H](C)O; dPhLac = O=C(O)[C@H](O)Cc1ccccc1; NMeA = CN[C@@H](C)C(=O)O; NMeDha = C=C(NC)C(=O)O

Legend:
92.1 uveal melanoma = assay: Resazurin-based viability assay, 92.1 uveal melanoma cells; type: cell-based
[1] = system: MIAPACA pancreatic ductal adenocarcinoma cells; assay: Resazurin-based viability assay, MIAPACA cells; type: cell-based; conditions: Homo sapiens, MIA PaCa-2, WT, 96 or 120 hours, Table 4
Method: 92.1 uveal melanoma and MIAPACA pancreatic ductal adenocarcinoma cells were seeded at low cell density in 96-well plates and treated with increasing concentrations of Compound (A1) or Compound (A2) as indicated. Following drug treatment for 96 or 120 hours, cell viability and proliferation were determined using a resazurin-based viability assay. Briefly, cells were incubated with a resazurin-based solution and color change was detected by absorbance with a spectrophotometer and used as a readout of cell viability. Data presented as mean of 3 independent replicates and relative to PBS-treated cells (control).

92.1 cells = assay: Annexin V flow cytometry apoptosis assay, 92.1 cells; type: cell-based; conditions: 92.1 and MIAPACA cells, FIG. 2
Method: (§1) 92.1 and MIAPACA cells were seeded in 96-well plates (5000 cells per well) and treated with increasing concentrations of Compound (A1), Compound (A2), and a fixed dose of Staurosporine (100 nM, positive control) as indicated. Following drug treatment for 96, cells were subjected to fluorescence-activated flow cytometry using an Annexin V antibody conjugated to a fluorescent dye. Data presented as mean of 3 independent replicates.
as §1, with “92.1” for “92.1 and MIAPACA”, “3207-(B1) (Isotype control), G4-(B1),” for “Compound (A2),”, “G1-(B1)” for “a fixed dose of Staurosporine (100 nM, positive control)”

GNAQ/11 = assay: IP1 levels by TR-FRET in 92.1 uveal melanoma cells; type: cell-based; conditions: 92.1 cells, overnight treatment, FIG. 3A
Method: (§2) 92.1 uveal melanoma were treated with increasing concentrations of Compound (A1) or Compound (A2) as indicated. Following drug treatment overnight, cells were processed for determination of IP1 levels using TR-FRET (time-resolved fluorescent resonance energy transfer) or protein levels by western-blotting.
92.1 uveal melanoma were treated with DMSO, Compound (A1) (8 nM) and increasing concentrations of Isotype-(B1), anti-PMEL17-(B1) and anti-PMEL17-(B2) ADCs as indicated. Following drug treatment for 2 days, cells were processed for determination of IP1 levels using TR-FRET (time-resolved fluorescent resonance energy transfer). IP1 levels (nM) are presented as mean of 3 independent replicates.

ERK signaling = assay: Western-blotting of 92.1 cells, ERK signaling; type: cell-based; conditions: FIG. 3C
Method: as §2

[2] = Chemical stability of Compound (A2) in three different systems; type: physicochemical; conditions: FIG. 5B
Method: (§3) In vitro stability of Compound (A2) was tested in plasma and blood from different species (FIG. 5A). […]

[3] = PK of Compound (A2) in female balb/c mice; type: in vivo
Method: as §3

[4] = Stability of Compound (A2), hepatic microsomes, mouse; type: in vitro ADME; conditions: intrinsic clearance
Method: as §3

[5] = Stability of Compound (A2), hepatic microsomes, rat; type: in vitro ADME; conditions: intrinsic clearance
Method: as §3

[6] = Stability of Compound (A2), hepatic microsomes, human; type: in vitro ADME; conditions: intrinsic clearance
Method: as §3

[7] = Stability of Compound (A2), hepatocytes, rat; type: in vitro ADME
Method: as §3

[8] = Stability of Compound (A2), hepatocytes, human; type: in vitro ADME
Method: as §3

[9] = Stability of Compound (A2), hepatic S9 fraction, mouse; type: in vitro ADME; conditions: read-out: Hepatic S9 (+/−NADPH) t½ (converted)
Method: as §3

[10] = Stability of Compound (A2), hepatic S9 fraction, rat; type: in vitro ADME
Method: as §3

[11] = Stability of Compound (A2), hepatic S9 fraction, human; type: in vitro ADME; conditions: read-out: Hepatic S9 (+/−NADPH) t½ (converted)
Method: as §3

[12] = Stability of Compound (A2), plasma, mouse; type: in vitro ADME; conditions: read-out: Plasma t½ (converted)
Method: as §3

[13] = Stability of Compound (A2), plasma, rat; type: in vitro ADME; conditions: read-out: Plasma t½ (converted)
Method: as §3

[14] = Stability of Compound (A2), plasma, human; type: in vitro ADME; conditions: read-out: Plasma t½ (converted)
Method: as §3

[15] = Stability in buffer at pH 5.6 and in lysosomes; type: in vitro ADME; conditions: buffer pH 5.6, lysosomes, 4 h, FIG. 5D
Method: as §3

In the case of `C=C1C(=O)N[C@@H](C)C(=O)N(C)[C@@H](C)C(=O)N[C@@H]([C@H](OC(=O)[C@@H](NC(C)=O)[C@H](O)C(C)C)C(C)C)C(=O)N(C)[C@@H]([C@@H](C)OC)C(=O)O[C@H](C)[C@H](NC(C)=O)C(=O)O[C@H](Cc2ccccc2)C(=O)N1C` [Compound (A2), (R)-1-((3S,6S,9S,12S,18R,21S,22R)-21-acetamido-18-benzyl-3-((R)-1-methoxyethyl)-4,9,10,12,16,22-hexamethyl-15-methylene-2,5,8,11,14,17,20-heptaoxo-1,19-dioxa-4,7,10,13,16-pentaazacyclodocosan-6-yl)-2-methylpropyl (2S,3R)-2-acetamido-3-hydroxy-4-methylpentanoate] (Ac-T[dPhLac][NMeDha]A[NMeA][Leu(3R-O(AcLeu(3R-OH)))][NMeT](Me); ester 1-C), the GI50 (92.1 uveal melanoma; 92.1, GNAQ^Q209L, 96 or 120 hours, Table 4, read-out: GI50) is reported as 7.7 nM, the GI50 (92.1 uveal melanoma; 92.1 GNAQ^Q209L, Table 1, read-out: GI50 (nM) 92.1GNAQ^Q209L) is reported as 22.1 nM and the anti-UM activity (92.1 uveal melanoma; 92.1 vs MIAPACA, FIG. 1) is reported as “potent target-dependent anti-UM activity”. For the same compound, the GI50 [1] was greater than 10000 nM, the “apoptosis (Annexin V)” value (92.1 cells) was “induced apoptosis in UM cells in GNAQ/11 dependent manner” and the IP1 levels (GNAQ/11) was “reduced IP1 levels”. For the same compound, the “ERK signaling (immunoblots)” value (ERK signaling) was “reduced ERK signaling”, the chemical stability [2] was “good chemical stability in three different systems” and the clearance ([3]; FIG. 5C) was “high clearance”. The elimination half-life ([3]; FIG. 5C) was “short elimination half-life”, the half-life ([3]; mouse, in vivo, 1 mg/kg iv) was 0.4 ± 0.01 h and the clearance ([3]; mouse, in vivo, 1 mg/kg iv, read-out: CL) was 175 ± 29 mL/min/kg. For the same compound, the “Hepatic microsomes” value [4] was 0.107 mL/min/kg, the “Hepatic microsomes” value [5] was 0.033 mL/min/kg and the “Hepatic microsomes” value [6] was 0.044 mL/min/kg. For the same compound, the “Hepatocytes (ul/min/10^6 cells)” value [7] was 8 ul/min/10^6 cells, the “Hepatocytes (ul/min/10^6 cells)” value [8] was less than 4 ul/min/10^6 cells and the half-life ([9]; +NADPH) was 1.9 h. For the same compound, the half-life ([9]; −NADPH) was greater than 2 h, the half-life ([10]; hepatic S9 fraction, +NADPH, read-out: Hepatic S9 (+/−NADPH) t½) was greater than 2 h and the “Hepatic S9 (+/−NADPH) t½ (h)” value ([10]; −NADPH) was >2/>2 h. The half-life ([11]; +NADPH) was 1.9 h, the half-life ([11]; −NADPH) was greater than 2 h and the half-life [12] was 2.1 h. For the same compound, the half-life [13] was 4.1 h, the half-life [14] was 2 h and the “stability in buffer and lysosomes” value [15] was “stable in buffer at pH 5.6 and in lysosomes over 4 h”.
